# Laboratory results from PubChem BioAssay (NCI).
#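 How tested: cells in 96-well plates exposed to compound for 48 hours at five concentrations. GI50 is the concentration that inhibits growth by half. TGI: total growth inhibition.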
# Tests used:
# Test in all cases: DTP human tumour cell line panel, 48 h
# 786-0 renal = system: 786-0 renal
# A498 renal = system: A498 renal
# A549 NSCLC = system: A549 NSCLC
# ACHN renal = system: ACHN renal
# BT-549 breast = system: BT-549 breast
# CAKI-1 renal = system: CAKI-1 renal
# CCRF-CEM leukemia = system: CCRF-CEM leukemia
# COLO 205 colon = system: COLO 205 colon
# DU-145 prostate = system: DU-145 prostate
# EKVX NSCLC = system: EKVX NSCLC
# HCC-2998 colon = system: HCC-2998 colon
# HCT-116 colon = system: HCT-116 colon
# HCT-15 colon = system: HCT-15 colon
# HL-60(TB) leukemia = system: HL-60(TB) leukemia
# HOP-62 NSCLC = system: HOP-62 NSCLC
# HOP-92 NSCLC = system: HOP-92 NSCLC
# HS 578T breast = system: HS 578T breast
# HT29 colon = system: HT29 colon
# IGROV1 ovarian = system: IGROV1 ovarian
# K-562 leukemia = system: K-562 leukemia
# KM12 colon = system: KM12 colon
# LOX IMVI melanoma = system: LOX IMVI melanoma
# M14 melanoma = system: M14 melanoma
# MALME-3M melanoma = system: MALME-3M melanoma
# MCF7 breast = system: MCF7 breast
# MDA-MB-231 breast = system: MDA-MB-231 breast
# MOLT-4 leukemia = system: MOLT-4 leukemia
# NCI-H226 lung = system: NCI-H226 lung
# NCI-H23 lung = system: NCI-H23 lung
# NCI-H460 lung = system: NCI-H460 lung
# NCI-H522 lung = system: NCI-H522 lung
# NCI/ADR-RES ovarian = system: NCI/ADR-RES ovarian
# OVCAR-3 ovarian = system: OVCAR-3 ovarian
# OVCAR-4 ovarian = system: OVCAR-4 ovarian
# OVCAR-5 ovarian = system: OVCAR-5 ovarian
# OVCAR-8 ovarian = system: OVCAR-8 ovarian
# PC-3 prostate = system: PC-3 prostate
# RPMI-8226 leukemia = system: RPMI-8226 leukemia
# RXF 393 renal = system: RXF 393 renal
# SF-268 CNS = system: SF-268 CNS
# SF-295 CNS = system: SF-295 CNS
# SF-539 CNS = system: SF-539 CNS
# SK-MEL-2 melanoma = system: SK-MEL-2 melanoma
# SK-MEL-28 melanoma = system: SK-MEL-28 melanoma
# SK-MEL-5 melanoma = system: SK-MEL-5 melanoma
# SK-OV-3 ovarian = system: SK-OV-3 ovarian
# SN12C renal = system: SN12C renal
# SNB-19 CNS = system: SNB-19 CNS
# SNB-75 CNS = system: SNB-75 CNS
# SR leukemia = system: SR leukemia
# SW-620 colon = system: SW-620 colon
# T-47D breast = system: T-47D breast
# TK-10 renal = system: TK-10 renal
# U251 CNS = system: U251 CNS
# UACC-257 melanoma = system: UACC-257 melanoma
# UACC-62 melanoma = system: UACC-62 melanoma
# UO-31 renal = system: UO-31 renal
# MDA-MB-435 = system: MDA-MB-435
structure (smiles),measurement,setting,value
Cc1ccc(C(=O)N/N=C/c2cccc(Oc3ccccc3)c2)cn1,GI50,786-0 renal,29.1 µM
same,TGI,786-0 renal,> 100 µM
same,GI50,A498 renal,9.99 µM
same,TGI,A498 renal,> 100 µM
same,GI50,A549 NSCLC,17 µM
same,TGI,A549 NSCLC,> 100 µM
same,GI50,ACHN renal,45.9 µM
same,TGI,ACHN renal,> 100 µM
same,GI50,BT-549 breast,5.37 µM
same,TGI,BT-549 breast,> 55.6 µM
same,GI50,CAKI-1 renal,4.41 µM
same,TGI,CAKI-1 renal,> 100 µM
same,GI50,CCRF-CEM leukemia,4.25 µM
same,TGI,CCRF-CEM leukemia,> 100 µM
same,GI50,COLO 205 colon,5.66 µM
same,TGI,COLO 205 colon,38.1 µM
same,GI50,DU-145 prostate,18.7 µM
same,TGI,DU-145 prostate,> 100 µM
same,GI50,EKVX NSCLC,8.36 µM
same,TGI,EKVX NSCLC,> 100 µM
same,GI50,HCC-2998 colon,16.1 µM
same,TGI,HCC-2998 colon,> 100 µM
same,GI50,HCT-116 colon,4.69 µM
same,TGI,HCT-116 colon,> 100 µM
same,GI50,HCT-15 colon,3.89 µM
same,TGI,HCT-15 colon,> 100 µM
same,GI50,HL-60(TB) leukemia,1.8 µM
same,TGI,HL-60(TB) leukemia,5.77 µM
same,GI50,HOP-62 NSCLC,60.2 µM
same,TGI,HOP-62 NSCLC,> 100 µM
same,GI50,HOP-92 NSCLC,12.7 µM
same,TGI,HOP-92 NSCLC,> 100 µM
same,GI50,HS 578T breast,6.74 µM
same,TGI,HS 578T breast,> 100 µM
same,GI50,HT29 colon,3.25 µM
same,TGI,HT29 colon,> 100 µM
same,GI50,IGROV1 ovarian,19 µM
same,TGI,IGROV1 ovarian,> 100 µM
same,GI50,K-562 leukemia,1.81 µM
same,TGI,K-562 leukemia,> 100 µM
same,GI50,KM12 colon,3.69 µM
same,TGI,KM12 colon,> 100 µM
same,GI50,LOX IMVI melanoma,8.54 µM
same,TGI,LOX IMVI melanoma,> 100 µM
same,GI50,M14 melanoma,6.08 µM
same,TGI,M14 melanoma,> 100 µM
same,GI50,MALME-3M melanoma,9.14 µM
same,TGI,MALME-3M melanoma,> 100 µM
same,GI50,MCF7 breast,3.48 µM
same,TGI,MCF7 breast,> 100 µM
same,GI50,MDA-MB-231 breast,22.9 µM
same,TGI,MDA-MB-231 breast,> 100 µM
same,GI50,MOLT-4 leukemia,3.83 µM
same,TGI,MOLT-4 leukemia,34.5 µM
same,GI50,NCI-H226 lung,> 64.5 µM
same,TGI,NCI-H226 lung,> 100 µM
same,GI50,NCI-H23 lung,26.6 µM
same,TGI,NCI-H23 lung,> 100 µM
same,GI50,NCI-H460 lung,4.05 µM
same,TGI,NCI-H460 lung,> 100 µM
same,GI50,NCI-H522 lung,7.38 µM
same,TGI,NCI-H522 lung,> 69.8 µM
same,GI50,NCI/ADR-RES ovarian,4.43 µM
same,TGI,NCI/ADR-RES ovarian,> 71.4 µM
same,GI50,OVCAR-3 ovarian,5.96 µM
same,TGI,OVCAR-3 ovarian,> 100 µM
same,GI50,OVCAR-4 ovarian,26.6 µM
same,TGI,OVCAR-4 ovarian,> 100 µM
same,GI50,OVCAR-5 ovarian,> 100 µM
same,TGI,OVCAR-5 ovarian,> 100 µM
same,GI50,OVCAR-8 ovarian,15.8 µM
same,TGI,OVCAR-8 ovarian,> 100 µM
same,GI50,PC-3 prostate,7.75 µM
same,TGI,PC-3 prostate,> 100 µM
same,GI50,RPMI-8226 leukemia,2.66 µM
same,TGI,RPMI-8226 leukemia,8.58 µM
same,GI50,RXF 393 renal,18.9 µM
same,TGI,RXF 393 renal,> 100 µM
same,GI50,SF-268 CNS,34.5 µM
same,TGI,SF-268 CNS,> 100 µM
same,GI50,SF-295 CNS,3.36 µM
same,TGI,SF-295 CNS,> 36.5 µM
same,GI50,SF-539 CNS,10.6 µM
same,TGI,SF-539 CNS,> 59.1 µM
same,GI50,SK-MEL-2 melanoma,> 24.6 µM
same,TGI,SK-MEL-2 melanoma,> 100 µM
same,GI50,SK-MEL-28 melanoma,27.3 µM
same,TGI,SK-MEL-28 melanoma,> 100 µM
same,GI50,SK-MEL-5 melanoma,5.21 µM
same,TGI,SK-MEL-5 melanoma,> 100 µM
same,GI50,SK-OV-3 ovarian,13 µM
same,TGI,SK-OV-3 ovarian,> 100 µM
same,GI50,SN12C renal,17.3 µM
same,TGI,SN12C renal,> 100 µM
same,GI50,SNB-19 CNS,10.3 µM
same,TGI,SNB-19 CNS,> 100 µM
same,GI50,SNB-75 CNS,4.85 µM
same,TGI,SNB-75 CNS,> 60.7 µM
same,GI50,SR leukemia,1.01 µM
same,TGI,SR leukemia,20.7 µM
same,GI50,SW-620 colon,4.79 µM
same,TGI,SW-620 colon,> 100 µM
same,GI50,T-47D breast,6.3 µM
same,TGI,T-47D breast,> 74.3 µM
same,GI50,TK-10 renal,14.4 µM
same,TGI,TK-10 renal,> 100 µM
same,GI50,U251 CNS,6.03 µM
same,TGI,U251 CNS,> 100 µM
same,GI50,UACC-257 melanoma,> 56.3 µM
same,TGI,UACC-257 melanoma,> 100 µM
same,GI50,UACC-62 melanoma,4.67 µM
same,TGI,UACC-62 melanoma,> 100 µM
same,GI50,UO-31 renal,19.6 µM
same,TGI,UO-31 renal,> 100 µM
N#CC(C#N)=CN1CCN(C(=O)c2ccccc2)C1=S,GI50,786-0 renal,38.9 µM
same,TGI,786-0 renal,> 100 µM
same,GI50,A549 NSCLC,37.1 µM
same,TGI,A549 NSCLC,> 100 µM
same,GI50,ACHN renal,18.8 µM
same,TGI,ACHN renal,43.6 µM
same,GI50,BT-549 breast,22.8 µM
same,TGI,BT-549 breast,53 µM
same,GI50,CAKI-1 renal,28.7 µM
same,TGI,CAKI-1 renal,89.4 µM
same,GI50,CCRF-CEM leukemia,> 100 µM
same,TGI,CCRF-CEM leukemia,> 100 µM
same,GI50,DU-145 prostate,24.4 µM
same,TGI,DU-145 prostate,85.9 µM
same,GI50,EKVX NSCLC,3.48 µM
same,TGI,EKVX NSCLC,11.4 µM
same,GI50,HCT-116 colon,34 µM
same,TGI,HCT-116 colon,> 100 µM
same,GI50,HCT-15 colon,36.4 µM
same,TGI,HCT-15 colon,> 100 µM
same,GI50,HL-60(TB) leukemia,33.5 µM
same,TGI,HL-60(TB) leukemia,79.4 µM
same,GI50,HOP-62 NSCLC,> 100 µM
same,TGI,HOP-62 NSCLC,> 100 µM
same,GI50,HOP-92 NSCLC,56.8 µM
same,TGI,HOP-92 NSCLC,> 100 µM
same,GI50,HT29 colon,42 µM
same,TGI,HT29 colon,> 100 µM
same,GI50,IGROV1 ovarian,28.2 µM
same,TGI,IGROV1 ovarian,> 100 µM
same,GI50,K-562 leukemia,79.5 µM
same,TGI,K-562 leukemia,> 100 µM
same,GI50,KM12 colon,32.3 µM
same,TGI,KM12 colon,86.7 µM
same,GI50,LOX IMVI melanoma,> 100 µM
same,TGI,LOX IMVI melanoma,> 100 µM
same,GI50,M14 melanoma,37.3 µM
same,TGI,M14 melanoma,> 100 µM
same,GI50,MALME-3M melanoma,10.2 µM
same,TGI,MALME-3M melanoma,64.1 µM
same,GI50,MCF7 breast,16.7 µM
same,TGI,MCF7 breast,55.9 µM
same,GI50,MDA-MB-231 breast,36.1 µM
same,TGI,MDA-MB-231 breast,> 100 µM
same,GI50,MDA-MB-435,38.8 µM
same,TGI,MDA-MB-435,> 100 µM
same,GI50,MOLT-4 leukemia,39.2 µM
same,TGI,MOLT-4 leukemia,> 100 µM
same,GI50,NCI-H23 lung,26.1 µM
same,TGI,NCI-H23 lung,60.1 µM
same,GI50,NCI-H460 lung,20 µM
same,TGI,NCI-H460 lung,66.5 µM
same,GI50,NCI-H522 lung,15.9 µM
same,TGI,NCI-H522 lung,43.7 µM
same,GI50,NCI/ADR-RES ovarian,> 100 µM
same,TGI,NCI/ADR-RES ovarian,> 100 µM
same,GI50,OVCAR-3 ovarian,36.4 µM
same,TGI,OVCAR-3 ovarian,> 100 µM
same,GI50,OVCAR-4 ovarian,59.3 µM
same,TGI,OVCAR-4 ovarian,> 100 µM
same,GI50,OVCAR-8 ovarian,77 µM
same,TGI,OVCAR-8 ovarian,> 100 µM
same,GI50,PC-3 prostate,60 µM
same,TGI,PC-3 prostate,> 100 µM
same,GI50,RPMI-8226 leukemia,35.3 µM
same,TGI,RPMI-8226 leukemia,> 100 µM
same,GI50,RXF 393 renal,22.7 µM
same,TGI,RXF 393 renal,70.7 µM
same,GI50,SF-268 CNS,21.3 µM
same,TGI,SF-268 CNS,49 µM
same,GI50,SF-295 CNS,46.2 µM
same,TGI,SF-295 CNS,> 100 µM
same,GI50,SK-MEL-2 melanoma,18.4 µM
same,TGI,SK-MEL-2 melanoma,68.4 µM
same,GI50,SK-MEL-28 melanoma,45.4 µM
same,TGI,SK-MEL-28 melanoma,> 100 µM
same,GI50,SK-MEL-5 melanoma,23.3 µM
same,TGI,SK-MEL-5 melanoma,50.1 µM
same,GI50,SK-OV-3 ovarian,66.7 µM
same,TGI,SK-OV-3 ovarian,> 100 µM
same,GI50,SN12C renal,24.6 µM
same,TGI,SN12C renal,65.8 µM
same,GI50,SNB-19 CNS,> 100 µM
same,TGI,SNB-19 CNS,> 100 µM
same,GI50,SNB-75 CNS,> 100 µM
same,TGI,SNB-75 CNS,> 100 µM
same,GI50,SR leukemia,18.8 µM
same,TGI,SR leukemia,79.9 µM
same,GI50,SW-620 colon,33.7 µM
same,TGI,SW-620 colon,> 100 µM
same,GI50,T-47D breast,89.2 µM
same,TGI,T-47D breast,> 100 µM
same,GI50,TK-10 renal,23.3 µM
same,TGI,TK-10 renal,75.1 µM
same,GI50,U251 CNS,38.2 µM
same,TGI,U251 CNS,> 100 µM
same,GI50,UACC-257 melanoma,25.3 µM
same,TGI,UACC-257 melanoma,81.9 µM
same,GI50,UACC-62 melanoma,50.4 µM
same,TGI,UACC-62 melanoma,> 100 µM
same,GI50,UO-31 renal,20.4 µM
same,TGI,UO-31 renal,47.3 µM
